# Test results taken from US20020001582A1, “Methods and compositions for inhibiting microbial growth” (priority 1999, published 2002).
# Test system: Sclerotinia homoeocarpa
# Assay: Suppressive treatment of mature bentgrass (lysozyme 24 and 48 hours after inoculation)
# Format: in vivo
# Conditions: day 7, 14 or 21, except 5,000 ppm on day 21
# Method: One year old bentgrass (Agrotis spp.) cv Pennlink was used as the host in this trial. It was grown in an open field at Select Sand Farm in Fort Langley, B.C. Round pieces of turfgrass, 6 cm diameter, were cut out and placed on 5 cm high pots (made from PVC pipes) containing steam sterilized river washed sand. The potted grass was regularly watered, fertilized and maintained at a cutting height of approximately 2.0 cm above the soil surface.
# The efficacy of egg white lysozyme was tested on Sclerotinia homoeocarpa. Virulent isolates of the test fungi were grown on a rye grain medium for approximately one week. This medium consisted of 50 g of rye grain, 1 g of CaCO3, and 75 ml of water. The medium was prepared in a 250 ml Erlenmeyer flask and autoclaved for 30 minutes. Three to five plugs of the actively growing mycelia from one-week-old culture on potato dextrose agar were transferred into flasks, and incubated in the dark at room temperature.
# In a second test three weeks after it was potted, the bentgrass was first inoculated with the test fungi by placing 3 infected rye kernels in the center of the pot, just above the soil surface. After inoculation, the pots were placed in humidity chambers on a greenhouse bench. Temperature during incubation was maintained at 27-30° C. for disease development. […]
# Pots were removed from the humidity chamber and evaluated individually for disease severity. […]
substance,measurement,value
"lysozyme: type c egg white lysozyme, enzyme of approximately 129 amino acids; commercially available from Canadian Inovatech, Inc.",reducing the infection of S. homoeocarpa,not effective
